What was measured:
[1] = system: carrageenan edema; assay: inhibition test of carrageenan edema employing a foot-pad edema method; format: in vivo, male Wister rats; conditions: for ED50: Rattus norvegicus, male Wister rats, foot-pad edema, read-out: ED50 for inhibition for carrageenan edema; for anti-inflammatory activity compared with DF: relative to DF
Excerpt: Anti-inflammatory action was investigated according to the method of Winter et al [cf. Pro. Soc. Exp. Biol. Med., 111, 544 (1962)] by the inhibition test of carrageenan edema employing a foot-pad edema method using carrageenan as an irritating agent and male Wister rats weighing 130 to 170 g.

[2] = in vivo; conditions: rat, po
Description: Gastrointestinal ulcer formation action, which is a principal side effect of an acid anti-inflammatory drug, was investigated according to the method of Okabe et al [cf. […] The compounds of the present invention, IM, DF and acemethacin were suspended in 5% Tween-80 solution and administered orally 1 ml/100 g body weight to the rats, respectively. At 6 hrs after the administration, the state of glandstomach was observed by means of a dissecting microscope whether the ulcer having a diameter more than 1 mm was generated or not.

[3] = Rate of hydrolysis in rat plasma; format: in vitro ADME; conditions: in 1 ml of plasma rat (37° C., incubation for 1 hr)
Description: **in 1 ml of plasma rat (37° C., incubation for 1 hr)

[4] = in vivo; conditions: mouse, po

SMILES | ED50 [1] [mg/kg] | TD50 at 6 h [2] [mg/kg] | metabolised at 1 h [3] [%] | LD50 [4] [mg/kg] | anti-inflammatory activity compared with DF [1]
CC=CC=CC(=O)OC(C)OC(=O)Cc1c(C)n(C(=O)c2ccc(Cl)cc2)c2ccc(OC)cc12 (stereo not drawn) [Compound 12, 1-(2,4-Hexadienoyloxy)ethyl[1-(p-chlorobenzoyl)-5-methoxy-2-methyl-3-indolyl]acetate] | > 20 | > 20 | 80.4 | 640 | 
C/C=C/C(=O)OCOC(=O)Cc1ccccc1Nc1c(Cl)cccc1Cl [Compound 13, Crotonoyloxymethyl-2-(2,6-dichloroanilino)-phenylacetate] | < 30 | 30 | 89.7 | 400 | 
CC(C)=CC(=O)OCOC(=O)Cc1ccccc1Nc1c(Cl)cccc1Cl [Compound 14, 3,3-Dimethylacryloyloxymethyl-2-(2,6-dichloroanilino)phenylacetate] | < 30 | 30 | 83.4 | 455 | 
CC(C)=CC(=O)OCCOC(=O)Cc1ccccc1Nc1c(Cl)cccc1Cl [Compound 17, 2-(3,3-Dimethylacryloyloxy)ethyl-2-(2,6-dichloroanilino)phenylacetate] | 30 | 30 | 78.4 | 400 | 
CC(=O)OC(C)OC(=O)Cc1ccccc1Nc1c(Cl)cccc1Cl (stereo not drawn) [Compound 18, 1-(Acetoxy)ethyl-2-(2,6-dichloroanilino)-phenylacetate] | 20 | 30 | 96.1 | 295 | almost equal anti-inflammatory activity to DF
C/C=C/C(=O)OC(C)OC(=O)Cc1ccccc1Nc1c(Cl)cccc1Cl (stereo not drawn) [Compound 19, 1-(Crotonoyloxy)ethyl-2-(2,6-dichloroanilino)phenylacetate] | < 30 | 30 | 86 | 380 | 
CC(C)=CC(=O)OC(C)OC(=O)Cc1ccccc1Nc1c(Cl)cccc1Cl (stereo not drawn) [Compound 20, 1-(3,3-Dimethylacryloyloxy)ethyl-2-(2,6-dichloroanilino)phenylacetate] | 20 | 30 | 80.3 | 460 | almost equal anti-inflammatory activity to DF
